For experiment [1], the system named is Staphylococcus aureus. Nature of the experiment: Bactericidal activity against methicillin-susceptible Staphylococcus aureus ATCC 29213 by broth microdilution method. The class given is functional. In general terms: Dilution methods test growth across graded concentrations, often in twofold steps.
Experiment [2] can be described thus: Antibacterial activity against Bacillus anthracis Sterne 34F2 at 10 uM by disc diffusion method. The following applies: read-out: DIZ. The class given is functional, Bacillus anthracis str. Sterne. In general terms: A growth-free zone around the sample is the usual read-out of agar diffusion tests.
Experiment [3] relates to Klebsiella pneumoniae. Description: Antibacterial activity against ESBL-producer Klebsiella pneumoniae K6 700603 at 10 uM by disc diffusion method. It is filed as functional. The following applies: read-out: DIZ.
Experiment [4] deals with Staphylococcus aureus. Nature of the experiment: Antibacterial activity against Staphylococcus aureus after overnight incubation in presence of GSH by double-diffusion assay. It is filed as functional.
The test system of experiment [5] is Enterobacter cloacae. Description: Antibacterial activity against Enterobacter cloacae ATCC 23355 at 10 uM by disc diffusion method. The class given is functional. The following applies: read-out: DIZ.
Experiment [6] deals with Staphylococcus aureus. Description: Antibacterial activity against methicillin-resistant Staphylococcus aureus BAA-1747 at 10 uM by disc diffusion method. It is filed as functional. The following applies: read-out: DIZ.
The test system of experiment [7] is Staphylococcus aureus. Nature of the experiment: Antibacterial activity against methicillin-resistant Staphylococcus aureus BAA-1747 by broth microdilution method. The class given is functional.
For experiment [8], the system named is Staphylococcus aureus. Nature of the experiment: Induction of reactive oxygen species formation in Staphylococcus aureus at 25 uM after 0.5 hrs by DCFH-DA probe-based fluorometric assay relative to control. It is filed as functional.
Experiment [9] concerns Acinetobacter baumannii. Nature of the experiment: Antibacterial activity against Acinetobacter baumannii ATCC 19606 at 10 uM by disc diffusion method. The class given is functional. The following applies: read-out: DIZ.
Experiment [10] can be described thus: Antibacterial activity against vancomycin-intermediate resistant Staphylococcus aureus Mu50 ATCC 700699 by broth microdilution method. It is filed as functional, Staphylococcus aureus subsp. aureus Mu50.
Experiment [11] in a line: Bactericidal activity against vancomycin-intermediate resistant Staphylococcus aureus Mu50 ATCC 700699 by broth microdilution method. It is filed as functional, Staphylococcus aureus subsp. aureus Mu50.
The subject of experiment [12] is Enterococcus faecium. Nature of the experiment: Antibacterial activity against vancomycin-resistant Enterococcus faecium ATCC 700221 at 10 uM by disc diffusion method. It is filed as functional. The following applies: read-out: DIZ.
Experiment [13] deals with Staphylococcus aureus. Description: Antibacterial activity against methicillin-susceptible Staphylococcus aureus ATCC 29213 by broth microdilution method. The class given is functional.
Experiment [14] relates to Enterococcus faecalis. Nature of the experiment: Antibacterial activity against vancomycin-susceptible Enterococcus faecalis ATCC 29212 at 10 uM by disc diffusion method. It is filed as functional. The following applies: read-out: DIZ.
Experiment [15] is described as follows: Antibacterial activity against vancomycin-intermediate resistant Staphylococcus aureus Mu50 ATCC 700699 at 10 uM by disc diffusion method. The class given is functional, Staphylococcus aureus subsp. aureus Mu50. The following applies: read-out: DIZ.
The nature of experiment [16]: Glutathione reactivity assessed as formation of S-(propylthio)glutathione and ciprofloxacin at 1 uM after 2 hrs by ESI-positive MS method.
The test system of experiment [17] is Staphylococcus aureus. Description: Ratio of MBC to MIC for vancomycin-intermediate resistant Staphylococcus aureus Mu50 ATCC 700699. The class given is functional.
Experiment [18] has as its system Staphylococcus aureus. Description: Ratio of MBC to MIC for methicillin-resistant Staphylococcus aureus BAA-1747. It is filed as functional.
The test system of experiment [19] is Staphylococcus aureus. Nature of the experiment: Antibacterial activity against Staphylococcus aureus after overnight incubation in presence of antioxidant vitamin E by double-diffusion assay. It is filed as functional.
Experiment [20] concerns Staphylococcus aureus. Description: Ratio of MBC to MIC for methicillin-susceptible Staphylococcus aureus ATCC 29213. The class given is functional.
Experiment [21] deals with Staphylococcus aureus. Description: Antibacterial activity against methicillin-susceptible Staphylococcus aureus ATCC 29213 at 10 uM by disc diffusion method. It is filed as functional. The following applies: read-out: DIZ.
For experiment [22], the system named is Staphylococcus aureus. Description: Bactericidal activity against methicillin-resistant Staphylococcus aureus BAA-1747 by broth microdilution method. It is filed as functional.
Experiment [23] deals with Acinetobacter baumannii. Description: Antibacterial activity against ciprofloxacin-resistant Acinetobacter baumannii BAA-1605 at 10 uM by disc diffusion method. It is filed as functional. The following applies: read-out: DIZ.
The subject of experiment [24] is Staphylococcus epidermidis. Nature of the experiment: Antibacterial activity against Staphylococcus epidermidis ATCC 14990 at 10 uM by disc diffusion method. The class given is functional. The following applies: read-out: DIZ.
Experiment [25] deals with Pseudomonas aeruginosa. Nature of the experiment: Antibacterial activity against Pseudomonas aeruginosa ATCC 15442 at 10 uM by disc diffusion method. The class given is functional. The following applies: read-out: DIZ.
Experiment [26] has as its system Staphylococcus aureus. Nature of the experiment: Antibacterial activity against methicillin-resistant Staphylococcus aureus BAA-1747 at 25 uM in presence of 10 uM ciprofloxacin by disc diffusion method. It is filed as functional.
In experiment [27] the test system is Klebsiella pneumoniae. Nature of the experiment: Antibacterial activity against ESBL-producer Klebsiella pneumoniae K6 700603 at 50 uM in presence of 10 uM ciprofloxacin by disc diffusion method. The class given is functional.
Experiment [28] relates to Enterococcus faecium. Nature of the experiment: Antibacterial activity against vancomycin-resistant Enterococcus faecium ATCC 700221 at 50 uM by disc diffusion method. It is filed as functional. The following applies: read-out: DIZ.
The subject of experiment [29] is Staphylococcus aureus. Description: Antibacterial activity against methicillin-resistant Staphylococcus aureus BAA-1747 at 50 uM by disc diffusion method. It is filed as functional. The following applies: read-out: DIZ.
For experiment [30], the system named is Enterobacter cloacae. Nature of the experiment: Antibacterial activity against Enterobacter cloacae ATCC 23355 at 25 uM in presence of 10 uM ciprofloxacin by disc diffusion method. The class given is functional.
The test system of experiment [31] is Pseudomonas aeruginosa. Description: Antibacterial activity against Pseudomonas aeruginosa ATCC 15442 at 50 uM in presence of 10 uM ciprofloxacin by disc diffusion method. The class given is functional.
In experiment [32] the test system is Staphylococcus aureus. Description: Antibacterial activity against methicillin-resistant Staphylococcus aureus BAA-1747 at 50 uM in presence of 10 uM ciprofloxacin by disc diffusion method. It is filed as functional.
The subject of experiment [33] is Enterobacter cloacae. Nature of the experiment: Antibacterial activity against Enterobacter cloacae ATCC 23355 at 50 uM in presence of 10 uM ciprofloxacin by disc diffusion method. The class given is functional.
Experiment [34] relates to Klebsiella pneumoniae. Nature of the experiment: Antibacterial activity against ESBL-producer Klebsiella pneumoniae K6 700603 at 25 uM in presence of 10 uM ciprofloxacin by disc diffusion method. It is filed as functional.
The test system of experiment [35] is Pseudomonas aeruginosa. Nature of the experiment: Antibacterial activity against Pseudomonas aeruginosa ATCC 15442 at 25 uM in presence of 10 uM ciprofloxacin by disc diffusion method. It is filed as functional.
In experiment [36] the test system is Acinetobacter baumannii. Description: Antibacterial activity against ciprofloxacin-resistant Acinetobacter baumannii BAA-1605 at 50 uM in presence of 10 uM ciprofloxacin by disc diffusion method. The class given is functional.
Experiment [37] relates to Acinetobacter baumannii. Description: Antibacterial activity against ciprofloxacin-resistant Acinetobacter baumannii BAA-1605 at 25 uM in presence of 10 uM ciprofloxacin by disc diffusion method. It is filed as functional.
The subject of experiment [38] is Pseudomonas aeruginosa. Nature of the experiment: Antibacterial activity against Pseudomonas aeruginosa ATCC 15442 at 50 uM by disc diffusion method. The following applies: read-out: DIZ. The class given is functional.
In experiment [39] the test system is Enterobacter cloacae. Nature of the experiment: Antibacterial activity against Enterobacter cloacae ATCC 23355 at 50 uM by disc diffusion method. The following applies: read-out: DIZ. The class given is functional.
Experiment [40] has as its system Acinetobacter baumannii. Description: Antibacterial activity against ciprofloxacin-resistant Acinetobacter baumannii BAA-1605 at 50 uM by disc diffusion method. The following applies: read-out: DIZ. The class given is functional.
In experiment [41] the test system is Klebsiella pneumoniae. Description: Antibacterial activity against ESBL-producer Klebsiella pneumoniae K6 700603 at 50 uM by disc diffusion method. It is filed as functional. The following applies: read-out: DIZ.
The test system of experiment [42] is Enterococcus faecium. Description: Antibacterial activity against vancomycin-resistant Enterococcus faecium ATCC 700221 at 50 uM in presence of 10 uM ciprofloxacin by disc diffusion method. The class given is functional.
Experiment [43] deals with Enterococcus faecium. Nature of the experiment: Antibacterial activity against vancomycin-resistant Enterococcus faecium ATCC 700221 at 25 uM in presence of 10 uM ciprofloxacin by disc diffusion method. The class given is functional.

Values after ≈ are worked out from the molar mass of the structure shown. Active and inactive are the calls of the source. The rule behind the calls is not given here.

A word on the MBC: it is the lowest tested concentration that kills the bacteria rather than only halting them. The low end stands for greater bactericidal potency, the high end for weaker bactericidal potency. The term MIC denotes the lowest concentration found to suppress growth. A higher MIC goes with weaker potency. Turning to `CCCSN1CCN(c2cc3c(cc2F)c(=O)c(C(=O)O)cn3C2CC2)CC1`, the MBC in [1] is 0.2 µM (≈ 0.0811 µg/mL); in experiment [11], 50 µM (≈ 20.3 µg/mL); in experiment [22], 1.56 µM (≈ 0.633 µg/mL). Further, the zone of inhibition at 10 µM in experiment [2] was determined as 38 mm; in [3], 25 mm; in experiment [5] it was 29 mm; in experiment [6], 24 mm; in experiment [9], 27 mm; in experiment [12], 0 mm. The zone of inhibition at 10 µM in experiment [14] stood at 28 mm; in experiment [15], 11 mm; in experiment [21], 29 mm; in experiment [23] it was 0 mm; in experiment [24] it was 37 mm; in experiment [25], 32 mm. Moreover, the outcome in experiment [4] and in [19] was Active. Moreover, the MIC turned out to be 1.56 µM (≈ 0.633 µg/mL) in experiment [7], 50 µM (≈ 20.3 µg/mL) in experiment [10] and 0.1 µM (≈ 0.0405 µg/mL) in experiment [13]. In addition, the “fold change (FC)” value in [8] was 2 - 3. Further, the Drug metabolism entry in experiment [16] is “Metabolite detected”. In addition, the values for the Ratio in [17], in [18] and in experiment [20] were 1, 1 and 2, respectively.
Consider `C=CCS[S+]([O-])CC=C` (configuration not stated) [ALLICIN], for which the “diameter of the inhibition zone (DIZ)” value in experiment [26] is 25 mm; in experiment [27], 24 mm; in experiment [30], 31 mm; in experiment [31], 27 mm; in experiment [32] it was 29 mm; in [33], 31 mm. The “diameter of the inhibition zone (DIZ)” value in experiment [34] is given as 22 mm; in [35], 28 mm; in experiment [36], 25 mm; in experiment [37], 20 mm; in [42], 17 mm; in experiment [43], 10 mm. The zone of inhibition at 50 µM was 18 mm in [28]; 28 mm in experiment [29]; 0 mm in [38]; 15 mm in experiment [39]; 24 mm in [40]; 13 mm in experiment [41].
Take `O=C(O)c1cn(C2CC2)c2cc(N3CCNCC3)c(F)cc2c1=O` [CIPROFLOXACIN]: the figures for the MBC in experiment [1], in experiment [11] and in experiment [22] were 0.78 µM (≈ 0.258 µg/mL), 50 µM (≈ 16.6 µg/mL) and 3.13 µM (≈ 1.04 µg/mL), respectively. Also, the zone of inhibition at 10 µM was 34 mm in experiment [2]; 22 mm in [3]; 20 mm in experiment [6]; 23 mm in experiment [9]; 0 mm in experiment [12]; 22 mm in experiment [14]. The zone of inhibition at 10 µM in experiment [15] amounted to 9 mm; in experiment [21], 23 mm; in [23], 0 mm; in experiment [25] it was 29 mm. The result in [4] and in [19] was Active. The MIC was determined as 1.56 µM (≈ 0.517 µg/mL) in [7], 50 µM (≈ 16.6 µg/mL) in experiment [10] and 0.1 µM (≈ 0.0331 µg/mL) in experiment [13]. Besides, the “fold change (FC)” value in [8] is recorded as 2 - 3.

For the origin of these results see ChEMBL document CHEMBL3864142, “Allicin-inspired thiolated fluoroquinolones as antibacterials against ESKAPE pathogens” (2016).
